Target: DNA-PK (Homo sapiens, UniProt P78527)
Experiment: SelectScreen Z'LYTE
Assay type: biochemical
Set-up: purchased Thermo Fisher Scientific (Life Technologies) SelectScreen
Settings: ATP Km app
Experimental: The in vitro kinase selectivity of NU5455 was determined using the SelectScreen Broad Assay Panel (Thermo Fisher Scientific) involving activity and binding assays (Supplemental Table 1). […] Class IA PI3Ks were measured using the p85α subunit.
Kinase [ATP] % Assay Kinase [ATP] % Assay Kinase [ATP] % Assay Kinase [ATP] % Assay
DNA-PK Km app 98.3 Z LATS2 n/a 4.7 L KIT D820E n/a 1.3 L GSK3B (GSK3 beta) Km app -2.5 Z
PIK3C3 (hVPS34) Km app 85.9 A PRKCZ (PKC zeta) Km app 4.7 Z GRK1 n/a 1.3 L BMPR2 n/a -2.5 L
PIK3C2B (PI3K-C2 beta) 10 28.9 A FGFR1 Km app 4.7 Z BRSK2 n/a 1.2 L CDC42 BPB (MRCKB) Km app -2.5 Z
SNF1LK2 Km app 26.6 Z MINK1 Km app 4.6 Z NUAK1 (ARK5) Km app 1.2 A AMPK (A2/B2/G2) n/a -2.6 L
HCK Km app 18.0 Z CSF1R (FMS) Km app 4.3 Z CDK9/cyclin K n/a 1.0 L PRKG1 Km app -2.7 Z
NEK2 Km app 17.8 Z CSNK1G3 (CK1 gamma 3) Km app 4.2 Z NUAK2 n/a 1.0 L KIT T670E n/a -2.8 L
ALK Km app 17.3 Z STK32C (YANK3) n/a 4.2 L CDK2/cyclin O n/a 0.9 L ERBB4 (HER4) Km app -2.8 Z
FGFR3 K650M n/a 16.5 L STK22D (TSSK1) Km app 4.2 Z CAMKK2 (CaMKK beta) n/a 0.9 L PLK4 n/a -2.8 L
SIK3 n/a 16.1 L TAOK3 (JIK) n/a 4.2 L FGFR3 Km app 0.9 Z GRK7 Km app -3.0 Z
LYN A Km app 15.2 Z RPS6KA4 (MSK2) Km app 4.2 Z ULK2 n/a 0.9 L MAPKAPK2 Km app -3.1 Z
BMPR1B (ALK6) n/a 14.5 L PTK2B (FAK2) Km app 4.2 Z KIT D816V n/a 0.9 L FGFR4 Km app -3.1 Z
INSRR (IRR) Km app 14.1 Z CLK2 Km app 4.1 Z CAMK1 (CaMK1) 10 0.8 A CASK n/a -3.1 L […]

For `CN(C(=O)CN1CCOCC1)c1ccc2sc3c(-c4cccc5c(=O)cc(N6CC7CCC(C6)O7)oc45)cccc3c2c1` [NU5455], the “% inhibition” value (1 µM) was 98% and the inhibition at 1 µM was 98.3%.

Source: article PMC6934184, “Selective DNA-PKcs inhibition extends the therapeutic index of localized radiotherapy and chemotherapy” (The Journal of Clinical Investigation, 2019)
